This is an account of results in US9789211B2, “Methods and compositions for positron emission tomography myocardial perfusion imaging” (UNIVERSITY OF SOUTHERN CALIFORNIA, priority 2012, dated 2017).

The conditions of data set [1]: cited from earlier work.
The conditions of data set [2]: cited from earlier work. The source holds these as a separate data set.
Data set [3] has as its system H345 lung carcinoma cells. Kind of data set: mitochondrial membrane potential-dependent cellular uptake with CCCP treatment. Type of data set: cell-based. The following applies: H345 cells incubated 10 min with CCCP before adding tracers. How it is done: Uptake kinetics of ^64Cu-Sar-TPP and 3H-TPP (standard) may be examined in H345 lung carcinoma cells. In brief, H345 cells will be harvested by trypsinization and washed twice with cold PBS buffer. Cells are counted and re-suspended in loading buffer at a concentration of 2×10^6 cells/mL. The cell suspension (0.5 mL) may be transferred to Eppendorf tubes and incubated at 37° C. for 60 min. An equal volume of loading solution containing 0.5-5 nM ^64Cu-Sar-TPP and 3H-TPP will be added. The sample may be centrifuged (800 rpm, 5 min) to terminate the uptake. Aliquots of the supernatant are then obtained and the remaining solution is aspirated. The radioactivity of the pellet and supernatant is counted together with standard solution ( 1/1,000) in a gamma counter. After completion of gamma counting, scintillation counting are performed after the complete decay of ^64Cu (two weeks). Cell uptake values of ^64Cu-Sar-TPP in H345 cells may be determined over incubation periods of 0.5, 1, 2, 4, and 24 h. […] The mitochondrial membrane potential-dependent cellular uptake of ^64Cu-Sar-TPP will be further assessed using the H345 cells treated with carbonyl cyanide m-chlorophenylhydrazone (CCCP). […] Only the ^64Cu-Sar-TPP probes that are sensitive towards CCCP will be evaluated in future investigation because this experiment supports the tracer uptakes are depend on mitochondria potential as we proposed above.

The log P is the decadic logarithm of the partition coefficient of the neutral form, usually between octanol and water.

`[C-]#[N+]CC(C)(C)OC.[C-]#[N+]CC(C)(C)OC.[C-]#[N+]CC(C)(C)OC.[C-]#[N+]CC(C)(C)OC.[C-]#[N+]CC(C)(C)OC.[C-]#[N+]CC(C)(C)OC.[Tc]` [^99mTc-sestamibi]: the log partition coefficient (log P) in data set [1] is 1.1. “^64/62Cu-pyruvaldehyde-bis(N4-methyl-thiosemicarbazone) [[^64/62Cu]-PTSM]”: the “clearance from the blood pool” value in data set [2] (association with serum albumin) is recorded as “clears slowly”. For the same molecule, in data set [2] (spillover into the inferior wall of myocardial), the liver uptake result was “high liver uptake”. As to `N#CC(C#N)=NNc1cccc(Cl)c1` [CCCP, carbonyl cyanide m-chlorophenylhydrazone], in data set [3], the “cell-associated activity of ^64Cu-Sar-TPP and 3H-TPP” value was “dose dependent decrease”.
